In patent US7662803B2, “Method for treating warm-blooded vertebrates with halide-free glucosamine-acidic drug complexes” (Gluconova, LLC, priority 2004, dated 2010):

What was measured:
Format in all cases: in vivo
male Swiss Webster mice [1] = test: Elevated Plus Maze (test for antianxiety activity); settings: 0.50 mg/kg intraperitoneal, 30 min before test, 5 minute on maze, 6 mice
Procedure: The apparatus employed in this example consisted of two darkened enclose arms and two open arms, with a light beam focused on the open arms. The maze is elevated to a height of 55 cm. Mice have a desire to explore the apparatus, but the open, bristly lit arms present an aversive environment so that their preference is to remain in the enclosed arms.
Thirty minutes later, each animal was individually placed on the elevated maze for 5 minute and the time spent on the open (aversive) arms was recorded.

male Swiss-Webster mice = test: abdominal irritant test (test for analgesia), acetylcholine bromide i.p.; settings: 30 min before acetylcholine bromide 5.5 mg/kg i.p., observed 10 min, 10 mice per group
Procedure: The test that was employed is an abdominal irritant test that was carried out in accordance with the procedure set forth by Collier et al., Brit. J. Pharmacol., 32:295-310 (1968).
Each group of 10 male Swiss-Webster mice weighing 25-30 g received an oral injection of (a) distilled water or 1% Tween® 80; or (b) a previously established analgesic dose of either ibuprofen (30 mg/kg), ketoprofen (200 mg/kg), naproxen (30 mg/kg), piroxicam (3 mg/kg) or aspirin (150 mg/kg) or ([…]).
Thirty minutes after each injection, each mouse was injected i.p. ([…]) with an aqueous solution of acetylcholine bromide (5.5 mg/kg). The animals were then observed for 10 minutes for the presence or absence of a characteristic wave of contraction and elongation passing caudally along the abdominal wall, accompanied by a twisting of the trunk and followed by extension of the hind limbs. The percentage of analgesia was then calculated for each group based on the percentage of mice displaying no behavioral response.

male Swiss Webster mice [2] = test: Metrazol-induced convulsions (test for antiepileptic activity); settings: 15 mg/kg subcutaneous, 15 min before metrazol 120 mg/kg s.c., 10 mice
Procedure: Three groups of 10 male Swiss Webster mice (25-30 g) received a subcutaneous injection of one of the following treatments: vehicle alone; phenytoin (15 mg/kg in 1% Tween® 80); halide-free glucosamine-phenytoin complex, ˜1:1 molar ratio, (15 mg/kg in water). Fifteen minutes later, each animal was injected subcutaneously with a convulsant dose of metrazol (120 mg/kg) and observed for 60 minutes for an entire-body convulsion.

[3] = 30 mg/kg oral (complex: mg/kg of the complex)

Structure (SMILES): CN1C(=O)CN=C(c2ccccc2)c2cc(Cl)ccc21 [Diazepam, diazepam]
- Mean time (sec) ± s.e.m. in open arms (male Swiss Webster mice [1]): 30.3 ± 12.7 s

Structure (SMILES): CC(=O)Oc1ccccc1C(=O)O [aspirin]
- analgesia (percentage of mice displaying no behavioral response) (male Swiss-Webster mice; 0.50 mg/kg oral as printed (complex: mg/kg of the complex)): 70%

Structure (SMILES): O=C1NC(=O)C(c2ccccc2)(c2ccccc2)N1 [Phenytoin, phenytoin]
- No. of mice protected (no body seizures in 60 min.) (male Swiss Webster mice [2]): 1/10

Structure (SMILES): CC(C)Cc1ccc(C(C)C(=O)O)cc1 (stereo not shown) [ibuprofen]
- analgesia (percentage of mice displaying no behavioral response) (male Swiss-Webster mice; [3]): 80%

Structure (SMILES): CN1C(C(=O)Nc2ccccn2)=C(O)c2ccccc2S1(=O)=O [piroxicam]
- analgesia (percentage of mice displaying no behavioral response) (male Swiss-Webster mice; 3 mg/kg oral (complex: mg/kg of the complex)): 70%

Structure (SMILES): COc1ccc2cc([C@H](C)C(=O)O)ccc2c1 [naproxen]
- analgesia (percentage of mice displaying no behavioral response) (male Swiss-Webster mice; [3]): 70%

Structure (SMILES): CC(C(=O)O)c1cccc(C(=O)c2ccccc2)c1 (stereo not shown) [ketoprofen]
- analgesia (percentage of mice displaying no behavioral response) (male Swiss-Webster mice; 200 mg/kg oral (complex: mg/kg of the complex)): 56%
